Measured values as given in the NIST ThermoML archive (doi:10.1016/j.jct.2010.11.017).
± gives the expanded uncertainty stated by the source.

Assay: mn = molality of the nth substance listed, in mol/kg
Conditions: 101 kPa, Liquid; for viscosity: Capillary tube (Ostwald / Ubbelohde) method; for speed of sound: Frequency=3 MHz, Linear variable-path acoustic interferometer; for mass density: Pycnometric method

N[C@@H](Cc1c[nH]cn1)C(=O)O [L-histidine] + O
Conditions	mass density [kg/m3]	speed of sound [m/s]	viscosity [mPa·s]
293.15 K, m1 = 0.0199	999.39 ± 6	1488.1 ± 10	1.014 ± 0.1
293.15 K, m1 = 0.0399	1000.54 ± 6	1491.8 ± 10	1.024 ± 0.1
293.15 K, m1 = 0.0599	1001.69 ± 6	1494.5 ± 10	1.035 ± 0.1
293.15 K, m1 = 0.0799	1002.84 ± 6	1496.5 ± 10	1.045 ± 0.1
293.15 K, m1 = 0.1	1003.99 ± 6	1497.4 ± 10	1.056 ± 0.11
293.15 K, m1 = 0.1199	1005.14 ± 6	1497.5 ± 10	1.066 ± 0.11
293.15 K, m1 = 0.14	1006.29 ± 6	1496.5 ± 10	1.077 ± 0.11
293.15 K, m1 = 0.16	1007.44 ± 6	1494.8 ± 10	1.087 ± 0.11
298.15 K, m1 = 0.0199	998.22 ± 6	1501.1 ± 10	0.9001 ± 0.09
298.15 K, m1 = 0.0399	999.37 ± 6	1504.4 ± 10	0.9083 ± 0.091
298.15 K, m1 = 0.0599	1000.52 ± 6	1506.8 ± 10	0.9164 ± 0.092
298.15 K, m1 = 0.0799	1001.68 ± 6	1508.1 ± 10	0.925 ± 0.093
298.15 K, m1 = 0.1	1002.83 ± 6	1508.6 ± 10	0.933 ± 0.094
298.15 K, m1 = 0.1199	1003.98 ± 6	1507.9 ± 10	0.9411 ± 0.094
298.15 K, m1 = 0.14	1005.13 ± 6	1506.5 ± 10	0.95 ± 0.095
298.15 K, m1 = 0.16	1006.28 ± 6	1504.2 ± 10	0.9583 ± 0.096
303.15 K, m1 = 0.0199	996.83 ± 6	1512.3 ± 10	0.8052 ± 0.081
303.15 K, m1 = 0.0399	997.99 ± 6	1515.1 ± 10	0.8119 ± 0.081
303.15 K, m1 = 0.0599	999.14 ± 6	1517 ± 10	0.8187 ± 0.082
303.15 K, m1 = 0.0799	1000.3 ± 6	1517.7 ± 10	0.8256 ± 0.083
303.15 K, m1 = 0.1	1001.46 ± 6	1518 ± 10	0.8318 ± 0.083
303.15 K, m1 = 0.1199	1002.61 ± 6	1516.4 ± 10	0.8383 ± 0.084
303.15 K, m1 = 0.14	1003.76 ± 6	1514.2 ± 10	0.8451 ± 0.085
303.15 K, m1 = 0.16	1004.91 ± 6	1511.5 ± 10	0.8513 ± 0.085
308.15 K, m1 = 0.0199	995.23 ± 6	1523.3 ± 10	0.7255 ± 0.073
308.15 K, m1 = 0.0399	996.39 ± 6	1525.7 ± 10	0.7309 ± 0.073
308.15 K, m1 = 0.0599	997.55 ± 6	1527.1 ± 10	0.7362 ± 0.074
308.15 K, m1 = 0.0799	998.71 ± 6	1527.6 ± 10	0.7415 ± 0.074
308.15 K, m1 = 0.1	999.87 ± 6	1527.2 ± 10	0.7464 ± 0.075
308.15 K, m1 = 0.1199	1001.02 ± 6	1525.5 ± 10	0.7515 ± 0.075
308.15 K, m1 = 0.14	1002.19 ± 6	1522.8 ± 10	0.7568 ± 0.076
308.15 K, m1 = 0.16	1003.34 ± 6	1519.8 ± 10	0.762 ± 0.076
313.15 K, m1 = 0.0199	993.41 ± 6	1529.9 ± 10	0.6581 ± 0.066
313.15 K, m1 = 0.0399	994.58 ± 6	1531.9 ± 10	0.6623 ± 0.066
313.15 K, m1 = 0.0599	995.74 ± 6	1532.8 ± 10	0.6665 ± 0.067
313.15 K, m1 = 0.0799	996.91 ± 6	1533 ± 10	0.6705 ± 0.067
313.15 K, m1 = 0.1	998.08 ± 6	1532.2 ± 10	0.6745 ± 0.068
313.15 K, m1 = 0.1199	999.23 ± 6	1530.3 ± 10	0.6788 ± 0.068
313.15 K, m1 = 0.14	1000.4 ± 6	1527.3 ± 10	0.683 ± 0.068
313.15 K, m1 = 0.16	1001.56 ± 6	1523.7 ± 10	0.6869 ± 0.069
318.15 K, m1 = 0.0199	991.41 ± 6	1535.7 ± 10	0.6018 ± 0.06
318.15 K, m1 = 0.0399	992.58 ± 6	1537.3 ± 10	0.605 ± 0.061
318.15 K, m1 = 0.0599	993.75 ± 6	1538 ± 10	0.6082 ± 0.061
318.15 K, m1 = 0.0799	994.92 ± 6	1537.6 ± 10	0.6114 ± 0.061
318.15 K, m1 = 0.1	996.1 ± 6	1536.3 ± 10	0.6148 ± 0.062
318.15 K, m1 = 0.1199	997.26 ± 6	1534.1 ± 10	0.6175 ± 0.062
318.15 K, m1 = 0.14	998.44 ± 6	1530.5 ± 10	0.6208 ± 0.062
318.15 K, m1 = 0.16	999.6 ± 6	1526.5 ± 10	0.6238 ± 0.062
